According to US7728012B2, “Carboxamide compounds and their use as calpain inhibitors” (Abbott GmbH & Co. KG, priority 2006, dated 2010):

Experiments:
Type in all cases: biochemical
[1] = biological target: T1, recombinant human cathepsin S (Homo sapiens, UniProt P25774); assay: Cathepsin S kinetic fluorescence enzyme inhibition assay; conditions: selectivity ratio versus calpain I
T1 construct: purchased Calbiochem 219343; host or cells: E. coli
Procedure, shortened: (§1)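 Inhibition is measured at room temperature in cysteine-containing MES buffer, pH 6.0, by continuous fluorescence at 460 nm. Cathepsin S (0.5 nM) uses 20 μM Z-Val-Val-Arg-AMC; L (1 nM) and B (0.25 nM) use Z-Phe-Arg-AMC at 2 and 100 μM respectively.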

[2] = biological target: T2, cathepsin K activated from recombinant human procathepsin K (Homo sapiens, UniProt P43235); assay: Cathepsin K kinetic fluorescence enzyme inhibition assay; conditions: selectivity ratio versus calpain I
T2 construct: purchased Calbiochem 342001; host or cells: E. coli
T2 sequence (P43235 115-329): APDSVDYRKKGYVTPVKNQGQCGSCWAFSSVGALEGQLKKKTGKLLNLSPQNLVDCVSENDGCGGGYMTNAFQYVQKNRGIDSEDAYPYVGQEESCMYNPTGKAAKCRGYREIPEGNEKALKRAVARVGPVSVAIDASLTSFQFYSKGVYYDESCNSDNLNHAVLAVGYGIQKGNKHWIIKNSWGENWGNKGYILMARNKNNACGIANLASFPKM

[3] = biological target: T3, calpain-I isolated from human erythrocytes (Homo sapiens, UniProt P07384); assay: Calpain I kinetic fluorescence enzyme inhibition assay; conditions: apparent Ki from IC50 by Cheng-Prussoff; average of 2 to 4 dose-effect plots
T3 construct: calpain-I—isolated from human erythrocytes; purchased Calbiochem 208713; host or cells: human erythrocytes (tissue isolate)
T3 sequence (P07384 1-714): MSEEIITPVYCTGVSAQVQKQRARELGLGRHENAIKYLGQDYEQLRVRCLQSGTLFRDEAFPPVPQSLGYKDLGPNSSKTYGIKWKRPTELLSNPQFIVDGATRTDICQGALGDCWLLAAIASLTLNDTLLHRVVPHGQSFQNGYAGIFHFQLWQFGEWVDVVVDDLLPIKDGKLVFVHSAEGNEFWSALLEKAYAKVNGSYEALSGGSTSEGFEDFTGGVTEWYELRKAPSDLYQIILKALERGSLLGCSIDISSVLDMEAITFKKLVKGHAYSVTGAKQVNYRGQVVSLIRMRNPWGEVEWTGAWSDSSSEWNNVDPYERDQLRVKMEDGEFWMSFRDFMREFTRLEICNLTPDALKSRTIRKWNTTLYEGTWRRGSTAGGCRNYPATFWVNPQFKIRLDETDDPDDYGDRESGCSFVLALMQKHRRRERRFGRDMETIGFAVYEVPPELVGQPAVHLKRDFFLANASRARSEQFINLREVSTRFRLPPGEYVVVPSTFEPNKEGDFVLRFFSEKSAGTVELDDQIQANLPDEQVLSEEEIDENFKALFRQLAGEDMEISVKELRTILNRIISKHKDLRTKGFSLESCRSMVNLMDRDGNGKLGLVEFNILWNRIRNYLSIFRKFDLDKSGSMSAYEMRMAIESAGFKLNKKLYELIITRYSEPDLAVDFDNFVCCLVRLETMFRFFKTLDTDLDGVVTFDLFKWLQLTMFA
T3 sequence (P04632 1-268 partner): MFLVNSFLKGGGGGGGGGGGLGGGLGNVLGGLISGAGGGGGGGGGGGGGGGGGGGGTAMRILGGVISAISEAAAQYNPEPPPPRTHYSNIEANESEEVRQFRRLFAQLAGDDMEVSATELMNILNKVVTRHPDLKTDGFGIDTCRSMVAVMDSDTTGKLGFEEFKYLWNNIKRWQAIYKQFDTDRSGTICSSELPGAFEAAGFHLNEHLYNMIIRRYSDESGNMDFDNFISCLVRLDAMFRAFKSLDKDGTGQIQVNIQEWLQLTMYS

[4] = biological target: T4, cathepsin L isolated from human liver (Homo sapiens, UniProt P07711); assay: Cathepsin L kinetic fluorescence enzyme inhibition assay; conditions: selectivity ratio versus calpain I
T4 construct: cathepsin L—isolated from human liver; purchased Calbiochem 219402; host or cells: human liver (tissue isolate)
Procedure, shortened: as §1

[5] = biological target: T5, cathepsin B isolated from human liver (Homo sapiens, UniProt P07858); assay: Cathepsin B kinetic fluorescence enzyme inhibition assay; conditions: selectivity ratio versus calpain I
T5 construct: cathepsin B—isolated from human liver; purchased Calbiochem 219362; host or cells: human liver (tissue isolate)
Procedure, shortened: as §1

T1 sequence (P25774 115-331): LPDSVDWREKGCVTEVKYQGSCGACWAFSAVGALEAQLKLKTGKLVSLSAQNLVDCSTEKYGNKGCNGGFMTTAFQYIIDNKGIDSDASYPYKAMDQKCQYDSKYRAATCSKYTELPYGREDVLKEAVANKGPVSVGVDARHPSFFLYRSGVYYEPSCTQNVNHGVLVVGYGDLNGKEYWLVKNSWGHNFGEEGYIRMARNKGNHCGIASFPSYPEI
T4 sequence (P07711 114-333): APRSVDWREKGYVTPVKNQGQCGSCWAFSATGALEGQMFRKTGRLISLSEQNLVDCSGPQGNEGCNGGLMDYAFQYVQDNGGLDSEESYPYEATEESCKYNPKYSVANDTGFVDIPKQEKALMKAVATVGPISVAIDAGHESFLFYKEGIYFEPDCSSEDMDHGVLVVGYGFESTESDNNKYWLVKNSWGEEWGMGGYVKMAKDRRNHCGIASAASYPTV

Compound | Sel cat. S (Ki(cathepsin S)/Ki(calpain) ratio) [1] | Sel cat. K (Ki(cathepsin K)/Ki(calpain) ratio) [2] | Ki [3] [µM] | Sel cat. L (Ki(cathepsin L)/Ki(calpain) ratio) [4] | Sel cat. B (Ki(cathepsin B)/Ki(calpain) ratio) [5]
NC(=O)C(=O)C(Cc1ccccc1)NC(=O)c1cccnc1-n1cc(Cl)c(-c2ccc(F)cc2)n1 (stereo not drawn) [Example 184, N-[3-Amino-2,3-dioxo-1-(phenylmethyl)propyl]-2-[4-chloro-3-(4-fluorophenyl)-1H-pyrazol-1-yl]pyridine-3-carboxamide] | ++ (Ki(cathepsin S)/Ki(calpain) ratio of ≧100) | + (10≦Ki(cathepsin K)/Ki(calpain)<30) | 0.04 to 0.1 | ++ (Ki(cathepsin L)/Ki(calpain) ratio of ≧50) | + (10≦Ki(cathepsin B)/Ki(calpain)<30)
NC(=O)C(=O)C(Cc1ccccc1)NC(=O)c1cccnc1-n1ccc(C23CC4CC(CC(C4)C2)C3)n1 (stereo not drawn) [Example 193, N-[3-Amino-2,3-dioxo-1-(phenylmethyl)propyl]-2-(3-tricyclo[3.3.1.1^3,7]dec-1-yl-1H-pyrazol-1-yl)pyridine-3-carboxamide] | ++ (Ki(cathepsin S)/Ki(calpain) ratio of ≧100) | ++ (Ki(cathepsin K)/Ki(calpain) ratio of ≧30) | ≤ 0.04 | ++ (Ki(cathepsin L)/Ki(calpain) ratio of ≧50) | ++ (Ki(cathepsin B)/Ki(calpain) ratio of ≧30)
N-[3-Amino-2,3-dioxo-1-(phenylmethyl)propyl]-2-[3-(3,5-dichlorophenyl)-1H-pyrazol-1-yl]pyridine-3-carboxamide [Example 89] | ++ (Ki(cathepsin S)/Ki(calpain) ratio of ≧100) | + (10≦Ki(cathepsin K)/Ki(calpain)<30) | 0.04 to 0.1 | ++ (Ki(cathepsin L)/Ki(calpain) ratio of ≧50) | + (10≦Ki(cathepsin B)/Ki(calpain)<30)
